Assay results taken from paper PMC6364417, “Kinase inhibitor library screening identifies synergistic drug combinations effective in sensitive and resistant melanoma cells” (Journal of Experimental & Clinical Cancer Research : CR, 2019).

What was measured:
Test in all cases: Kinase inhibitor library screening, PrestoBlue cell viability, 1 or 10 μM, 72 h
[1] = system: A375 cells (parental); conditions: for viability at 1 µM / viability at 10 µM: Homo sapiens, A-375, 72 h; for viability at 1 µM: read-out: cell viability, A375 Parental, 1μΜ; for viability at 10 µM: read-out: cell viability, A375 Parental, 10μΜ
[2] = system: 501Mel cells (parental); conditions: 72 h; for viability at 1 µM / viability at 10 µM: Homo sapiens; for viability at 1 µM: read-out: cell viability, 501Mel Parental, 1μΜ; for viability at 10 µM: read-out: cell viability, 501Mel Parental, 10μΜ
In short: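 Two concentrations of every kinase inhibitor were tested on each melanoma line and its resistant counterparts, and cell survival was quantified by PrestoBlue against untreated wells.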

[3] = system: IGR37-XP cells (Vemurafenib-resistant); conditions: for viability at 1 µM / viability at 10 µM: Homo sapiens, IGR-37, 72 h; for viability at 1 µM: read-out: cell viability, IGR37 XP, 1μΜ; for viability at 10 µM: read-out: cell viability, IGR37 XP, 10μΜ
[4] = system: 501Mel-GP cells (Dabrafenib-resistant); conditions: 72 h; for viability at 1 µM / viability at 10 µM: Homo sapiens; for viability at 1 µM: read-out: cell viability, 501Mel GP, 1μΜ; for viability at 10 µM: read-out: cell viability, 501Mel GP, 10μΜ
[5] = system: 501Mel-XP cells (Vemurafenib-resistant); conditions: 72 h; for viability at 1 µM / viability at 10 µM: Homo sapiens; for viability at 1 µM: read-out: cell viability, 501Mel XP, 1μΜ; for viability at 10 µM: read-out: cell viability, 501Mel XP, 10μΜ
[6] = system: IGR37 cells (parental); conditions: for viability at 1 µM / viability at 10 µM: Homo sapiens, IGR-37, 72 h; for viability at 1 µM: read-out: cell viability, IGR37 Parental, 1μΜ; for viability at 10 µM: read-out: cell viability, IGR37 Parental, 10μΜ
[7] = system: IGR37-GP cells (Dabrafenib-resistant); conditions: for viability at 1 µM / viability at 10 µM: Homo sapiens, IGR-37, 72 h; for viability at 1 µM: read-out: cell viability, IGR37 GP, 1μΜ; for viability at 10 µM: read-out: cell viability, IGR37 GP, 10μΜ
[8] = system: A375-XP cells (Vemurafenib-resistant); conditions: for viability at 1 µM / viability at 10 µM: Homo sapiens, A-375, 72 h; for viability at 1 µM: read-out: cell viability, A375 XP, 1μΜ; for viability at 10 µM: read-out: cell viability, A375 XP, 10μΜ
[9] = system: A375-GP cells (Dabrafenib-resistant); conditions: for viability at 1 µM / viability at 10 µM: Homo sapiens, A-375, 72 h; for viability at 1 µM: read-out: cell viability, A375 GP, 1μΜ; for viability at 10 µM: read-out: cell viability, A375 GP, 10μΜ
[10] = IGR37 Parental, 1μΜ, 72 h, in %
[11] = IGR37 Parental, 10μΜ, 72 h, in %

CC(C)(O)CC(=O)NCCn1ccc2ncnc(Nc3ccc(Oc4cccc(C(F)(F)F)c4)c(Cl)c3)c21 [TAK-285]
viability at 1 µM [1]: 102% | viability at 10 µM [1]: 90.5% | viability at 1 µM [2]: 101% | viability at 10 µM [2]: 99% | viability at 1 µM [3]: 87.2% | viability at 10 µM [3]: 48.4% | viability at 1 µM [4]: 104% | viability at 10 µM [4]: 87.8% | viability at 1 µM [5]: 94.8% | viability at 10 µM [5]: 83.2% | viability at 1 µM [6]: 108% | viability at 10 µM [6]: 99.7% | viability at 1 µM [7]: 90.8% | viability at 10 µM [7]: 86% | viability at 1 µM [8]: 108% | viability at 10 µM [8]: 87.7% | viability at 1 µM [9]: 103% | viability at 10 µM [9]: 83.1%

Cn1c(=O)c(F)c(Nc2ccc(I)cc2F)c2c(=O)n(C[C@@H](O)CO)cnc21 [TAK-733]
viability at 1 µM [1]: 18.6% | viability at 10 µM [1]: 18.6% | viability at 1 µM [2]: 54% | viability at 10 µM [2]: 57.9% | viability at 1 µM [3]: 52.9% | viability at 10 µM [3]: 22% | viability at 1 µM [4]: 90.9% | viability at 10 µM [4]: 72.7% | viability at 1 µM [5]: 80.5% | viability at 10 µM [5]: 58.7% | viability at 1 µM [6]: 36.5% | viability at 10 µM [6]: 44% | viability at 1 µM [7]: 65.6% | viability at 10 µM [7]: 58.6% | viability at 1 µM [8]: 10.7% | viability at 10 µM [8]: 2.7% | viability at 1 µM [9]: 17.6% | viability at 10 µM [9]: 16.5%

Nc1nc(N)c2nc(-c3cccc(O)c3)c(-c3cccc(O)c3)nc2n1 [TG100-115]
Cell viability in kinase inhibitor library screening, A375 Parental, 10μΜ ([1]; A375 Parental, 10μΜ, 72 h): 88.3 | Cell viability in kinase inhibitor library screening, A375 Parental, 1μΜ ([1]; A375 Parental, 1μΜ, 72 h): 100.3 | Cell viability in kinase inhibitor library screening, 501Mel Parental, 1μΜ ([2]; 501Mel Parental, 1μΜ, in %): 99.2 | Cell viability in kinase inhibitor library screening, 501Mel Parental, 10μΜ ([2]; 501Mel Parental, 10μΜ, in %): 89.6 | Cell viability in kinase inhibitor library screening, IGR37 XP, 10μΜ ([3]; IGR37 XP, 10μΜ, 72 h): 70.9% | Cell viability in kinase inhibitor library screening, 501Mel GP, 1μΜ ([4]; 501Mel GP, 1μΜ, in %): 107.0 | Cell viability in kinase inhibitor library screening, 501Mel GP, 10μΜ ([4]; 501Mel GP, 10μΜ, in %): 81.4 | Cell viability in kinase inhibitor library screening, 501Mel XP, 1μΜ ([5]; 501Mel XP, 1μΜ, in %): 97.0 | Cell viability in kinase inhibitor library screening, 501Mel XP, 10μΜ ([5]; 501Mel XP, 10μΜ, in %): 81.6 | Cell viability in kinase inhibitor library screening, IGR37 Parental, 1μΜ [6, 10]: 97.1 | Cell viability in kinase inhibitor library screening, IGR37 Parental, 10μΜ [6, 11]: 98.5 | Cell viability in kinase inhibitor library screening, IGR37 GP, 10μΜ ([7]; IGR37 GP, 10μΜ, 72 h): 89.4% | Cell viability in kinase inhibitor library screening, IGR37 GP, 1μΜ ([7]; IGR37 GP, 1μΜ, 72 h, in %): 96.0 | Cell viability in kinase inhibitor library screening, A375 XP, 1μΜ ([8]; A375 XP, 1μΜ, 72 h): 103.9 | Cell viability in kinase inhibitor library screening, A375 GP, 1μΜ ([9]; A375 GP, 1μΜ, 72 h): 100.0 | Cell viability in kinase inhibitor library screening, A375 GP, 10μΜ ([9]; A375 GP, 10μΜ, 72 h): 91.7

Cc1cnc(Nc2ccc(N3CCN(C)CC3)cc2)nc1Nc1cccc(S(=O)(=O)NC(C)(C)C)c1 [TG101209]
cell viability, A375 Parental, 1μΜ ([1]; A375 Parental, 1μΜ, 72 h, in %): 87.8 | cell viability, A375 Parental, 10μΜ ([1]; A375 Parental, 10μΜ, 72 h, in %): 11.9 | cell viability, 501Mel Parental, 10μΜ ([2]; 501Mel Parental, 10μΜ, in %): 0.6 | cell viability, IGR37 XP, 10μΜ ([3]; IGR37 XP, 10μΜ, 72 h): 1.6% | cell viability, IGR37 XP, 1μΜ ([3]; IGR37 XP, 1μΜ, 72 h, in %): 82.7 | cell viability, 501Mel GP, 1μΜ ([4]; 501Mel GP, 1μΜ, in %): 109.4 | cell viability, 501Mel GP, 10μΜ ([4]; 501Mel GP, 10μΜ, in %): 1.7 | cell viability, 501Mel XP, 1μΜ ([5]; 501Mel XP, 1μΜ, in %): 85.2 | cell viability, 501Mel XP, 10μΜ ([5]; 501Mel XP, 10μΜ, in %): -0.127 | cell viability, IGR37 Parental, 1μΜ [6, 10]: 97.5 | cell viability, IGR37 Parental, 10μΜ [6, 11]: 6.5 | cell viability, IGR37 GP, 10μΜ ([7]; IGR37 GP, 10μΜ, 72 h): 3.2% | cell viability, IGR37 GP, 1μΜ ([7]; IGR37 GP, 1μΜ, 72 h, in %): 98.5 | cell viability, A375 XP, 1μΜ ([8]; A375 XP, 1μΜ, 72 h, in %): 93.3 | cell viability, A375 XP, 10μΜ ([8]; A375 XP, 10μΜ, 72 h, in %): 13.1 | cell viability, A375 GP, 1μΜ ([9]; A375 GP, 1μΜ, 72 h, in %): 79.9 | cell viability, A375 GP, 10μΜ ([9]; A375 GP, 10μΜ, 72 h, in %): 14.4
